Results on five molecules are retold here after patent US6001849A, “Furopyridine, thienopyridine pyrrolopyridine useful in controlling chemical synaptic transmission” (Abbott Laboratories, priority 1997, dated 1999).

Counter-ions that a name gives are not always drawn.

Experiment [1] deals with T1, α4 and β2 nicotinic acetylcholine subunits (K177 cells) (Homo sapiens, UniProt P17787+P43681).
T1 construct: expressed in transfected cells
As to the kind of experiment: 86Rb+ efflux assay in K177 cells (HEK 293 stably transfected with α4 and β2 nicotinic acetylcholine subunits). Type of experiment: cell-based. To be noted: K177, Table 1; for Emax: maximal response, percent relative to 100 μM (S)-nicotine, read-out: K177 % max. Here is the method:
(§1) B. Protocols for the Determination of Functional Effects of Nicotinic Acetylcholine Receptor Ligands on Synaptic Transmission
Cells of the IMR-32 human neuroblastoma clonal cell line (ATCC, Rockville, Md.) were maintained in a log phase of growth according to established procedures (Lukas, R. J., J. Pharmacol. Exp. Ther., 265: 294-302, 1993). Experimental cells were seeded at a density of 500,000 cells/mL into a 24-well tissue culture dish. Plated cells were allowed to proliferate for at least 48 hours before loading with 2 μCi/mL of ^86 Rb^+ (35 Ci/mmol) overnigh at 37° C. The ^86 Rb^+ efflux assays were performed according to previously published protocols (Lukas, 1993) except serum-free Dulbecco's Modified Eagle's Medium was used during the ^86 Rb^+ loading, rinsing, and agonist-induced efflux steps.
Cells of the K177 cell line, resulting from stable transfection of the human embryonic kidney (HEK) 293 cell line with the cDNA of the α4 and β2 nicotinic acetylcholine subunits (Gopalakrishnan, et al, J. Pharmacol. Expt. Ther. 1996, 276, 289-297), were maintained in a log phase of growth according to established procedures (Gopalakrishnan, et al., loc. cit.). The cells were plated onto poly-lysine coated 24-well Costar plates (Cambridge, Mass.) at a density of 250,000 cells/well. When confluent, the cells were loaded with ^86 Rb^+ and agonist-induced efflux was assessed as reported above for IMR-32 cells.
Maximal responses (reported as percent relative to the response elicited by 100 μM (S)-nicotine) are shown for selected compounds of the invention. The inhibition data (given for other selected compounds) reflect inhibition of the efflux elicited by 100 μM (S)-nicotine at the indicated concentration. […] This finding is in agreement with the results of others who have linked dopamine release, which is dependent upon the ion flux in synaptic transmission, to binding at nicotinic receptors (cf., for example, Lippiello and Caldwell, U.S. Pat. No. 5,242,935, issued Sept. 7, 1993; Caldwell and Lippielo, U.S. Pat. No. 5,248,690, issued Sept. 28, 1993; and Wonnacott et al., Prog. Brain Res; 79: 157-163 (1989)).

Experiment [2] addresses neuronal nicotinic acetylcholine receptors. As to the kind of experiment: [3H]-cytisine ligand-receptor binding assay (crude synaptic membranes from whole rat brain). To be noted: Table 1; [3H]-cytisine 1.25 nM, 4° C., 60 min; Ki by Cheng and Prusoff; read-out: [^3 H]-Cyt Binding. In short, it runs like this: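 Displacement of [3H]-cytisine (1.25 nM) from crude synaptic membranes of whole rat brain, pH 7.4 Tris buffer with Na+, K+, Mg2+ and Ca2+. Incubation was 60 min at 4 °C, followed by filtration. Nonspecific binding was defined with 10 μM (−)-nicotine, and values are expressed as % of total binding.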

Experiment [3] has as its system neuronal nicotinic acetylcholine receptors in IMR-32 cells. As to the kind of experiment: 86Rb+ efflux assay in IMR-32 neuroblastoma cells. To be noted: Table 1; for IMR-32 % Inhibition @ 10 μM: inhibition of efflux elicited by 100 μM (S)-nicotine; for IMR-32 % max: maximal response, percent relative to 100 μM (S)-nicotine. Type of experiment: cell-based, human. Here is the method:
as §1
Experimental cells were seeded at a density of 500,000 cells/mL into a 24-well tissue culture dish. Plated cells were allowed to proliferate for at least 48 hours before loading with 2 μCi/mL of ^86 Rb^+ (35 Ci/mmol) overnigh at 37° C.

T1 sequence (P43681 29-627 limits assumed): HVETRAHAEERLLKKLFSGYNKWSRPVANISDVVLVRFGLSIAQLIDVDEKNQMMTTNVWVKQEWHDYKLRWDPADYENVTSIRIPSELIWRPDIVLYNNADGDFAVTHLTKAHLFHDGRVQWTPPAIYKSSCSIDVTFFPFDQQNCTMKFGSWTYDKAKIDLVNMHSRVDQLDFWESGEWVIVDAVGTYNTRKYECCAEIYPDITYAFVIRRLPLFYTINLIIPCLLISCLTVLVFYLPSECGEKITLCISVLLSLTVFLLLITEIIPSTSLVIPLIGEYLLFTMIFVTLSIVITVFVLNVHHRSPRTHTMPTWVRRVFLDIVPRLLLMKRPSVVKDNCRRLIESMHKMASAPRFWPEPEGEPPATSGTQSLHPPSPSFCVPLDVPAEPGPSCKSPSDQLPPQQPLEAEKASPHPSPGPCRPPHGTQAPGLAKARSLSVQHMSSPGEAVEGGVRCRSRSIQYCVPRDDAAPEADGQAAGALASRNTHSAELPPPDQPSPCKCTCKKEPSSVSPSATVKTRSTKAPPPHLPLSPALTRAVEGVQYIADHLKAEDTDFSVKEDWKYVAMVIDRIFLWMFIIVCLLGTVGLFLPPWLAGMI
T1 sequence (P17787 26-502): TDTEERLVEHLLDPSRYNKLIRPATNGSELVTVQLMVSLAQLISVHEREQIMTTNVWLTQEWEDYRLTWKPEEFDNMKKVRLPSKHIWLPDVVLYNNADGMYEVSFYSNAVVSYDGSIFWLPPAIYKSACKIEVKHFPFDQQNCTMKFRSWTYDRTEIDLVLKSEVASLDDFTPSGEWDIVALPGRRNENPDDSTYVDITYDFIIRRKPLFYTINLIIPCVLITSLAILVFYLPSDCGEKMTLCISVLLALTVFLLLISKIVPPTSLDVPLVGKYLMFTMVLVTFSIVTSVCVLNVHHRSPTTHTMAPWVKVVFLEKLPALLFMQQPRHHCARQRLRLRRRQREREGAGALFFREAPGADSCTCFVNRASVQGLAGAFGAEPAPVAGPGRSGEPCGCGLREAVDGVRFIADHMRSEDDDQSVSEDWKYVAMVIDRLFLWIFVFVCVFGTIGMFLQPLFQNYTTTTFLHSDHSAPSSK

As a reminder, the inhibition is the change of the read-out against control, counted positive when it falls. As for `Cc1ccc2oc([C@H]3CCCN3)cc2n1.Cl` [Example 29, 5-methyl-2-(2-(R)-pyrrolidinyl)-furo[3,2-b]pyridine hydrochloride], the inhibition at 10 µM in experiment [1] (inhibition of efflux elicited by 100 μM (S)-nicotine, 10 μM, read-out: K177 % Inhibition @ 10 μM) worked out at 28%. In addition, the Emax in experiment [1] came to 0%. The Ki in experiment [2] is 6.8 nM. For the same molecule, the “IMR-32 % Inhibition @ 10 μM” value in experiment [3] amounted to 0%.
For the molecule `Cl.Clc1cc2oc(C34CCCN3CCC4)cc2nc1Cl` [Example 38, 2-(Hexahydro-1H-7a-pyrrolizinyl)-5,6-dichlorofuro[3,2-b]pyridine hydrochloride], the Emax in experiment [1] worked out at 0%. In addition, in experiment [2], the Ki is 0.33 nM. In experiment [3], the “IMR-32 % Inhibition @ 10 μM” value is 10% and the IMR-32 % max is given as 12%.
In the same order, the values of `Cl.Clc1cc2oc([C@H]3CCCN3)cc2nc1Cl` [Example 39, 5,6-Dichloro-2-(2-(R)-pyrrolidinyl)furo[3,2-b]pyridine hydrochloride] are 39%, 1.1 nM, 25% and 4%.
As to `CN1[C@@H]2CC[C@@H](C2)[C@H]1c1cc2ncccc2o1` [Example 42, 2-((1R,4S)-2-aza-3-(S)-bicyclo[2.2.1]heptyl)-2-methylfuro[3,2-b]pyridil dihydrochloride], in experiment [1], the Emax was 29%. Moreover, the Ki in experiment [2] turned out to be 4.7 nM. This molecule also registered an IMR-32 % max in experiment [3] of 24%.
On to `CN1CCC[C@H]1c1cc2nc(Cl)c(Br)cc2o1.Cl.Cl` [Example 48, 6-bromo-5-chloro-2-(1-methyl-2-(S)-pyrrolidinyl)furo[3,2-b]pyridine dihydrochloride], for which, in experiment [1], the Emax is 0%. Besides, the Ki in experiment [2] worked out at 1.3 nM. Further, in experiment [3], the “IMR-32 % Inhibition @ 10 μM” value came out at 0% and the IMR-32 % max is recorded as 6%.
